Results as given in patent US9403874B2, “Peptides and use thereof” (IL YANG PHARM. CO.,LTD., priority 2012, dated 2016).

Key:
Format in all cases: cell-based
Details in all cases: 100 ng/me of peptide; EBV-infected B cells stimulated with anti-CD150; ELISA of culture supernatant
IL-17A = assay: Reduction of IL-17A secretion in activated B cells (ELISA)
Experimental: (§1) In order to determine the activity of the novel peptides synthesized in Example 1 for reducing the secretion of inflammatory cytokines, the activated pathogenic B cells were treated with each of the 18 types of synthesized novel peptides and the reduction in secretion of inflammatory cytokines from the B cells was monitored.
(§2) Specifically, in order to determine whether the novel peptides could weaken the pathogenic B cells which are involved in the development of disease symptoms, the in vitro B cells model which is similar to the joint infiltrative B cells of rheumatoid arthritis was used. The activated pathogenic B cell was generated by stimulating Ebstein Barr virus (EBV)-infected B cells with anti-CD150 antibodies, and the cells were treated with […] of each of the 18 types of novel peptide.
(§3) In order to confirm the effect of 18 types of novel peptides in reducing inflammatory cytokines, the secretion amount of various cytokines (IL-1A, IL-1B, IL-2, IL-4, IL-5, IL-6, IL-8, IL-10, IL-12A, IL-13, IL-17A, GM-CSF, IL-34) secreted from the activated B cells was measured. The supernatants of B cell culture were analyzed enzyme-linked immunosorbent assay (ELISA), and the difference in absorbance (450 nm-570 nm) of the color developing reagent was measured as test results. Based on the measured difference in absorbance (450 nm-570 nm) of the color developing reagent, the absorbance of cytokines secreted when treated with the 18 types of novel […] was calculated in percentage, while setting the absorbance corresponding to the cytokines secreted from the activated B cells stimulated by anti-CD150 as 100%.

IL-1A = assay: Reduction of IL-1A secretion in activated B cells (ELISA)
Experimental: as §1, §2, §3

IL-12A = assay: Reduction of IL-12A secretion in activated B cells (ELISA)
Experimental: as §1, §2, §3

IL-1B = assay: Reduction of IL-1B secretion in activated B cells (ELISA)
Experimental: as §1, §2, §3

IL-34 = assay: Reduction of IL-34 secretion in activated B cells (ELISA)
Experimental: as §1, §2, §3

IL-5 = assay: Reduction of IL-5 secretion in activated B cells (ELISA)
Experimental: as §1, §2, §3

IL-10 = assay: Reduction of IL-10 secretion in activated B cells (ELISA)
Experimental: as §1, §2, §3

IL-2 = assay: Reduction of IL-2 secretion in activated B cells (ELISA)
Experimental: as §1, §2, §3

IL-6 = assay: Reduction of IL-6 secretion in activated B cells (ELISA)
Experimental: as §1, §2, §3

IL-8 = assay: Reduction of IL-8 secretion in activated B cells (ELISA)
Experimental: as §1, §2, §3

GM-CSF = assay: Reduction of GM-CSF secretion in activated B cells (ELISA)
Experimental: as §1, §2, §3

IL-13 = assay: Reduction of IL-13 secretion in activated B cells (ELISA)
Experimental: as §1, §2, §3

IL-4 = assay: Reduction of IL-4 secretion in activated B cells (ELISA)
Experimental: as §1, §2, §3

Substance	Inhibition rate of each cytokine compared to CD150-stimulated EBV-t B cells (%) IL-17A (IL-17A) [%]	Inhibition rate of each cytokine compared to CD150-stimulated EBV-t B cells (%) IL-1A (IL-1A) [%]	Inhibition rate of each cytokine compared to CD150-stimulated EBV-t B cells (%) IL-12A (IL-12A) [%]	Inhibition rate of each cytokine compared to CD150-stimulated EBV-t B cells (%) IL-1B (IL-1B) [%]	Inhibition rate of each cytokine compared to CD150-stimulated EBV-t B cells (%) IL-34 (IL-34) [%]	Inhibition rate of each cytokine compared to CD150-stimulated EBV-t B cells (%) IL-5 (IL-5) [%]	Inhibition rate of each cytokine compared to CD150-stimulated EBV-t B cells (%) IL-10 (IL-10) [%]	Inhibition rate of each cytokine compared to CD150-stimulated EBV-t B cells (%) IL-2 (IL-2) [%]	Inhibition rate of each cytokine compared to CD150-stimulated EBV-t B cells (%) IL-6 (IL-6) [%]	Inhibition rate of each cytokine compared to CD150-stimulated EBV-t B cells (%) IL-8 (IL-8) [%]	Inhibition rate of each cytokine compared to CD150-stimulated EBV-t B cells (%) GM-CSF (GM-CSF) [%]	Inhibition rate of each cytokine compared to CD150-stimulated EBV-t B cells (%) IL-13 (IL-13) [%]	Inhibition rate of each cytokine compared to CD150-stimulated EBV-t B cells (%) IL-4 (IL-4) [%]
RDGRT (SIS-1#16 peptide)	32.8	16.2	29.8	17.0	23.1	20.3	31.2	15.4	22.8	33.0	6.2	24.5	23.9
RDGRTD (SIS-1#17 peptide)	23.8	18.8	16.0	20.5	20.8	14.0	15.8	17.0	16.8	22.0	14.8	14.8	32.0
MSLPSP (SIS-1#1 peptide)	24.8	7.8	19.8	9.3	18.8	18.5	7.2	13.5	19.2	17.5	18.0	15.0	19.8
RDGR (SIS-1#15 peptide)	10.1	11.5	10.8	5.7	6.0	6.4	7.2	12.7	4.8	15.0	1.5	7.2	6.3
MSLPSPRDGRTDG (SIS-1#4 peptide)	43.0	18.1	33.9	16.5	16.8	20.4	18.0	18.8	32.3	32.0	18.5	23.1	20.8
